Results reported in US20080051424A1, “Heterocyclyl-substituted nonadepsipeptides” (priority 2004, published 2008).
Starred links: 1 amine or outer side, 2 acyl side, 3 side chain; linkers in the order of their positions; H or OH if unused. Positions of bridges follow the written chain, without caps; N, C: chain ends. Non-standard residues stand in square brackets, D forms with d. Residues, ends and D or L forms follow the SMILES beside them. Phe(3R-OH) = O=C([C@@H](N[*:1])[C@H](O[*:3])c1ccccc1)[*:2]; X1 = CC1CC(C)NC(NCCC[C@@H](N[*:1])C(=O)[*:2])=N1; Asn(3S-OH) = NC(=O)[C@@H](O)[C@H](N)C(=O)O; Leu(3R-OH) = CC(C)[C@@H](O)[C@H](N)C(=O)O; aThr = C[C@H](O)[C@H](N)C(=O)O

Assays:
[1] = tested on: Streptococcus pneumoniae G9a; type: cell-based
Description: (§1) Determination of the Minimum Inhibitory Concentration (MIC): The MIC is determined in the liquid dilution test in accordance with the NCCLS guidelines. Overnight cultures of Staphylococcus aureus 133, Entercococcus faecalis 27159, E. faecium 4147 and Streptococcus pneumoniae G9a are incubated with the described test substances in a 1:2 dilution series. The MIC determination is carried out with a cell count of 10^5 microorganisms per ml in Isosensitest medium (Difco, Irvine/USA), with the exception of S. pneumoniae, which is tested in BHI broth (Difco, Irvine/USA) with 10% bovine serum at a cell count of 10^6 microorganisms per ml. The cultures are incubated at 37° C. for 18-24 hours, S. pneumoniae in the presence of 10% CO2. The lowest substance concentration in each case at which no visible bacterial growth occurs any more is defined as the MIC. The MIC values are reported in μg/ml.

[2] = tested on: Staphylococcus aureus 133; type: cell-based
Description: as §1

E. faecalis ICB 27159 = type: cell-based, Enterococcus faecalis
Description: as §1

- MIC S. pneumoniae [1]: 0.5 µg/mL
- MIC S. aureus 133 [2]: 0.5 µg/mL
- MIC E. faecalis ICB 27159 (E. faecalis ICB 27159): 2 µg/mL
Structure (SMILES): CC[C@H](C)[C@@H]1NC(=O)[C@@H](CCCNC2=NC(C)CC(C)N2)NC(=O)[C@H](CC(C)C)NC(=O)[C@H]([C@H](O)C(C)C)NC(=O)[C@@H](NC(=O)[C@H](CC(C)C)NC(=O)[C@H](N)CC(C)C)[C@@H](c2ccccc2)OC(=O)[C@H](CO)NC(=O)[C@H]([C@H](O)C(N)=O)NC(=O)CNC(=O)[C@H]([C@H](C)O)NC1=O.O=C(O)C(F)(F)F.O=C(O)C(F)(F)F (stereo partly drawn) [Example 3, N^ω.6,N^ω′.6-(Pentane[2,4]diyl)lysobactin] (H-[dL]L[Phe(3R-OH)][Leu(3R-OH)]L[X1]I[aThr]G[Asn(3S-OH)]S; ester 3-C)
